11 compounds from PubChem BioAssay (NCI) can be followed below.

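Tested at 5 concentrations; 48 h exposure; 96-well plates; endpoints linearly interpolated, else capped at highest concentration. GI50 marks 50% less growth. The concentration for full growth arrest is given as TGI.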 A value given as a limit tells only on which side of the number the result lay.

Assay in all cases: NCI tumour cell line growth inhibition, 48 h
The test system of assay [1] is HL-60(TB) leukemia.
The subject of assay [2] is MALME-3M melanoma.
In assay [3] the test system is MOLT-4 leukemia.
Assay [4] relates to OVCAR-3 ovarian.
In assay [5] the test system is OVCAR-4 ovarian.
Assay [6] deals with SK-MEL-28 melanoma.
The subject of assay [7] is SN12C renal.
Assay [8] relates to SW-620 colon.
The subject of assay [9] is UACC-62 melanoma.
Assay [10] deals with K-562 leukemia.

As to `CC(C)(C)N/N=C(\C(=O)Nc1cccc(Cl)c1)C1C(=O)Nc2ccccc2S1=O` (centres undefined), the TGI in assay [1] was over 100 µM; in assay [2] it was 47.4 µM; in assay [3], over 100 µM; in assay [4] it was over 100 µM; in assay [5], over 100 µM; in assay [6] it was over 100 µM. Further, the TGI in assay [7], in [8] and in [9] was over 100 µM throughout.
In the case of `CCc1ccccc1NC(=O)C(=O)C(C#N)c1ccccc1Cl` (centres undefined), the TGI in [1], in [2], in assay [3], in assay [4], in [5] and in assay [6] was over 100 µM in each case. Moreover, the TGI in [7], in [8] and in assay [9] was over 100 µM each time.
As to `CC(c1cc(Cl)ccc1O)c1cc(Cl)ccc1O`, the GI50 in [1] is 2.55 µM; in assay [2], 4.61 µM; in assay [3] it was 3.3 µM; in assay [4], 3.62 µM; in assay [5], 5.24 µM; in assay [6], 4.13 µM. Besides, the values for the GI50 in assay [7], in assay [8] and in assay [9] were 3.66 µM, 3.7 µM and 3.58 µM, respectively. Besides, the TGI came to 5.75 µM in assay [1]; 22.7 µM in assay [2]; 10.3 µM in [3]; 13 µM in [4]; 22.8 µM in [5]; 17 µM in assay [6]. The TGI worked out at 16.1 µM in [7], 13.3 µM in [8] and 15 µM in assay [9].
`COc1cccc(C=O)c1C(=O)c1cc(O)ccc1O`: the TGI was over 100 µM in assay [1]; 37.5 µM in [2]; 27.5 µM in [3]; 45.5 µM in assay [4]; 35.7 µM in assay [5]; over 61.4 µM in [6]. The TGI was over 100 µM in [7], 33.2 µM in assay [8] and over 100 µM in [9].
As for `CN1CC=C(c2cc(NC(=O)Nc3ccc(Oc4ccnc(NC(=O)C5CC5)c4)c(F)c3)cc(C(F)(F)F)c2)CC1`, the GI50 in assay [1] was 0.183 µM; in assay [2], 0.289 µM; in assay [3], 0.202 µM; in [4], 0.234 µM; in assay [5], 0.26 µM; in [6], 1.23 µM. The values for the GI50 in assay [7], in [8] and in [9] were 0.159 µM, 0.196 µM and 1.1 µM, respectively. Further, the TGI came out at 0.704 µM in assay [1]; 1.13 µM in assay [2]; 0.943 µM in [3]; 4.93 µM in [4]; 2.35 µM in assay [5]; 3.07 µM in assay [6]. Besides, the TGI in assay [7] was found to be 1.27 µM; in assay [8], 0.556 µM; in assay [9] it was 2.25 µM.
In the case of `COC1=CC(c2ccc[nH]2)=N/C1=C\c1[nH]c(C)c(C(=O)CCC(=O)Oc2ccc3c(c2)CCC2C3CC[C@]3(C)[C@@H](O)CC[C@@H]23)c1C` (some centres undefined), the GI50 in [1] was 4.7 µM; in assay [4], 2.96 µM; in assay [5] it was 5.02 µM; in [6] it was 5.64 µM; in assay [7], 5.06 µM; in assay [8], 0.816 µM. Moreover, in assay [9], the GI50 is 1.7 µM. For the same compound, the TGI in assay [1] is over 100 µM; in assay [4] it was 27.9 µM; in [5] it was over 100 µM; in [6], over 100 µM; in assay [7], over 100 µM; in assay [8], 5.14 µM. This compound gave a TGI in assay [9] of 4.62 µM.
On to `COc1cccc2c1OC1Sc3ccccc3-c3nn(-c4ccccc4)c-2c31` (centres undefined), for which the TGI in assay [1], in [10], in assay [2], in assay [3], in assay [4] and in [6] was over 100 µM in each case. This compound registered a TGI in assay [8] of over 100 µM.
Take `N/C=N/S(=O)(=O)c1ccc(NC(=O)COC(=O)c2cccc3c(=O)c4ccccc4[nH]c23)cc1`: the TGI in [1], in [10], in assay [2], in assay [3], in [4] and in [6] was over 100 µM throughout. Moreover, the TGI in assay [7], in [8] and in assay [9] was over 100 µM in each case.
Regarding `O=C(c1ccccc1)C(Cl)C(Cl)c1ccccc1` (centres undefined), the GI50 in assay [1] was 3.04 µM; in [10] it was 2.6 µM; in [3] it was 2.33 µM; in assay [4], 2.03 µM; in assay [5], 3.45 µM; in assay [6], 2.47 µM. The GI50 was 2.1 µM in assay [7], 1.41 µM in [8] and 1.69 µM in assay [9]. The TGI in assay [1] was 8.58 µM; in assay [10] it was 10.3 µM; in [3], 6.25 µM; in assay [4] it was 4.57 µM; in assay [5], 14.4 µM; in assay [6] it was 6.46 µM. For the same compound, the TGI in assay [7] came to 5.95 µM; in assay [8] it was 3.36 µM; in assay [9], 3.69 µM.
Consider `COC(=O)Cc1c([C@@]2(C)CCCC(C)(C)C2)ccc2c1C(=O)OC2`, for which the TGI in assay [1] is 13.3 µM; in assay [10], 19.4 µM; in assay [2], 38 µM; in assay [3] it was 18.2 µM; in [4], 20.7 µM; in assay [6], 34.9 µM. The TGI in [7] is 23 µM; in assay [8], over 100 µM; in assay [9] it was 31.4 µM.
As for `COC(=O)Oc1nn(C(=O)OC)c(=O)c2ccccc12`, the TGI in assay [1], in assay [10], in assay [2], in assay [3], in assay [4] and in [6] was over 100 µM in each case. For the same compound, the TGI in assay [7], in assay [8] and in assay [9] was over 100 µM each time.
